{"source": "patent US12723233B2", "about": "“Media and methods for differentiating natural killer cells” (STEMCELL Technologies Canada Inc., priority 2018, dated 2026)", "key": {"[1]": {"system": "sorted day 14 populations of NK cell progenitors", "experiment": "Differentiation of sorted day 14 NK cell progenitor subsets to CD56+ NK cells, cultured another 14 days", "type": "cell-based, Human", "description": "CD34^+ CB cells were isolated and cultured as described in Example 1 up to the day 14 time point. NK cell progenitors derived from CB CD34^+ HSPCs after 14 days of culture were stained, essentially as described in Example 3, with antibodies against markers CD5, CD7, and CD56. CD56^− cells were gated and CD7^+CD5^−, CD7^+CD5^+, CD5^−CD7^− cells were sorted using a BD FACSAria Fusion fluorescence-activated cell sorter. To investigate which subset of the day 14 population of NK cell progenitors is targeted by pyrimidoindole compounds, the CD7^+CD5^−, CD7^+CD5^+ and CD7^−CD5^− sorted populations were each cultured for another 14 days in NK Cell Differentiation medium without or with UM729. CD34^+ CB cells were isolated and cultured as described in Example 1 up to the day 14 time point. NK cell progenitors derived from CB CD34^+ HSPCs after 14 days of culture were stained, essentially as described in Example 3, with antibodies against markers CD5, CD7, CD34, and CD56. CD56^− cells were gated and […], and CD34^− CD7^+CD5^− and CD34^−CD7^+CD5^+ were sorted using a BD FACSAria Fusion fluorescence-activated cell sorter. CD7 cells were sorted as a negative control. To investigate which subset of the day 14 population of NK cell progenitors is targeted by pyrimidoindole compounds, the CD34^+CD7^+CD5^− and CD34^+CD7^+CD5^+, and CD34^−CD7^+CD5^− and CD34^− CD7^+CD5^+ sorted populations were each cultured for another 14 days in NK Cell Differentiation medium with or without UM729."}, "NK cell progenitors": {"system": "NK cell progenitors", "experiment": "Differentiation of cord blood CD34+-derived NK cell progenitors to CD56+ NK cells (culture days 14-28), flow cytometry and cell counts", "type": "cell-based, Human", "protocol": "Human CB samples were obtained from Bloodworks NW (Seattle, WA) and CD34^+ cells were isolated using EasySep™ Human Cord Blood CD34 Positive Selection Kit II (STEMCELL Technologies, Catalogue #17896). Obtained in this way the purity of CD34^+ cells is typically higher than 90%.\nThe wells of a 24-well plate were coated with StemSpan™ Lymphoid Differentiation Coating Supplement (STEMCELL Technologies, Catalogue #09925) and 5000 CD34^+ cells were plated per well. The CD34^+ cells were cultured for up to 14 days in StemSpan™ SFEM II (STEMCELL Technologies, Catalogue #09605, 09655) supplemented with Lymphoid Progenitor Expansion Supplement (STEMCELL Technologies, Catalogue #09915) with media changes every 3-4 days.\nAfter 14 days in culture, CD34^+ cell-derived NK cell progenitors were harvested. 50,000 NK cell progenitors were plated per well of an uncoated tissue culture 24-well plate. The plated NK cell progenitors were cultured for up to two weeks in NK Cell Differentiation medium (i.e StemSpan™ SFEM II (STEMCELL Technologies, Catalog # 09605, 09655) supplemented with NK Cell Differentiation Supplement (STEMCELL Technologies, Catalogue #09950), and cultured for an additional two weeks with media changes every 3-4 days. UM729 or UM171 was added to supplemented NK Cell Differentiation Medium on days 14-28. On day 28 cells were harvested for analysis or downstream applications.\nHarvested cells were stained and measured by flow cytometry for expression of the NK cell lineage marker CD56. Dead cells were excluded by light scatter profile and 7-AAD or DRAQ7 staining. The results in FIGS. 1 and 2 at condition “0” (plotted on the x-axis) indicate the frequency and yield of CD56^+ NK cells that result from experiments that follows the protocol described above but in the absence of UM171 or UM729. Cell counts were obtained using the NucleoCounter NC250. Yield was calculated by dividing the resulting cell number by the number of cells initially seeded. Yields of specific cell types were obtained by multiplying total yield by cell frequency.\nCells were cultured as described in Example 1, with the exception that the up to two week culture of NK cell progenitors (i.e. culture days 14-28) in NK Cell Differentiation medium occurred in the presence or absence of UM171 or UM729.\nThe effects of UM171 and UM729 were tested across a range of concentrations: 0 nM, 50 nM, 100 nM, 150 nM and 200 nM for UM171; and 0 μM, 0.25 μM, 0.5 μM, 1 μM, and 2 μM for UM729.\nCD34^+ CB cells were isolated and cultured as described in Example 1 up to the day 14 time point. Day 14 NK cell progenitors were further cultured in NK Cell Differentiation medium, essentially as described in Example 1, except in the absence of an added pyrimidoindole compound but in the presence or absence of 5 μM CH223191."}, "[2]": {"conditions": "sorted CD7+CD5+ cells, 14 days with UM729, three donors"}, "[3]": {"conditions": "sorted CD7+CD5− cells, 14 days with UM729, three donors"}, "[4]": {"conditions": "sorted CD34−CD7+CD5+ cells, 14 days with UM729"}, "[5]": {"conditions": "sorted CD34−CD7+CD5− cells, 14 days with UM729"}, "[6]": {"conditions": "1 μM UM729, normalized to STD cultures, n=20"}, "[7]": {"conditions": "tested 0, 0.25, 0.5, 1, 2 μM, days 14-28"}}, "data": [{"compound": "COC(=O)c1ccc2c(c1)[nH]c1ncnc(NCCCN3CCCCC3)c12", "note": "[UM729, methyl 4-((3-(piperidin-1-yl)propyl)amino)-9H-pyrimido[4,5-b]indole-7-carboxylate]", "values": [{"measurement": "Frequency of NK cells compared to culture conditions lacking UM729", "setting": "[1]; [2]", "result": "higher"}, {"measurement": "Yield of NK cells compared to culture conditions lacking UM729", "setting": "[1]; [2]", "result": "higher"}, {"measurement": "Frequency of NK cells compared to culture conditions lacking UM729", "setting": "[1]; [3]", "result": "higher"}, {"measurement": "Yield of NK cells compared to culture conditions lacking UM729", "setting": "[1]; [3]", "result": "higher"}, {"measurement": "Expansion and differentiation to NK cells", "setting": "[1]; sorted CD7−CD5− cells, presence or absence of UM729", "result": "did not expand and differentiate to NK cells"}, {"measurement": "Responsiveness of CD34+ NK progenitor cell subsets to UM729", "setting": "[1]; sorted CD34+CD7+CD5− and CD34+CD7+CD5+ cells, 14 days with UM729", "result": "do not appear responsive"}, {"measurement": "Frequency of NK cells compared to culture conditions lacking UM729", "setting": "[1]; [4]", "result": "higher"}, {"measurement": "Yield of NK cells compared to culture conditions lacking UM729", "setting": "[1]; [4]", "result": "higher"}, {"measurement": "Frequency of NK cells compared to culture conditions lacking UM729", "setting": "[1]; [5]", "result": "higher"}, {"measurement": "Yield of NK cells compared to culture conditions lacking UM729", "setting": "[1]; [5]", "result": "higher"}, {"measurement": "Frequency of CD56+ NK cells compared to cultures lacking UM729", "setting": "NK cell progenitors; 1 μM UM729, 14 days culture of NK cell progenitors, paired t-test p=0.017", "result": "increased significantly"}, {"measurement": "Yield of CD56+ NK cells per input cell compared to cultures lacking UM729", "setting": "NK cell progenitors; 1 μM UM729, 14 days culture of NK cell progenitors, paired t-test p=0.032", "result": "increased significantly"}, {"measurement": "Increase of average frequency of NK cells compared to culture conditions not including a pyrimidoindole compound", "setting": "NK cell progenitors; [6]", "result": "~ 30%"}, {"measurement": "Increase of average yield of NK cells compared to culture conditions not including a pyrimidoindole compound", "setting": "NK cell progenitors; [6]", "result": 2, "unit": "fold"}, {"measurement": "Concentration at which frequency of CD56+ NK cells appeared to be highest", "setting": "NK cell progenitors; [7]", "result": 1, "unit": "µM"}, {"measurement": "Concentration at which yield of CD56+ NK cells appeared to be highest", "setting": "NK cell progenitors; [7]", "result": 1, "unit": "µM"}]}]}
